Format in all cases: functional
The test system of test [1] is Bombyx mori. As to the kind of experiment: Antijuvenile hormone activity against third-instar larvae of Bombyx mori assessed as precocious metamorphosis-inducing activity at 1 ug/larva.
For test [2], the system named is Bombyx mori. Description: Antijuvenile hormone activity against third-instar larvae of Bombyx mori assessed as precocious metamorphosis-inducing activity at 40 ug/larva.
Test [3] has as its system Bombyx mori. Description: Antijuvenile hormone activity against third-instar larvae of Bombyx mori assessed as precocious metamorphosis-inducing activity at 10 ug/larva.
Test [4] relates to Bombyx mori. As to the kind of experiment: Antijuvenile hormone activity against allatectomized third-instar larvae of Bombyx mori assessed as number of larvae transformed into fifth instar larvae at 1 ug/larva (reference value: 0).
Test [5] relates to Bombyx mori. As to the kind of experiment: Antijuvenile hormone activity against allatectomized third-instar larvae of Bombyx mori assessed as number of larvae transformed into larval pupa intermediate at 40 ug/larva (reference value: 0).
In test [6] the test system is Bombyx mori. Description: Antijuvenile hormone activity against allatectomized third-instar larvae of Bombyx mori assessed as number of larvae transformed into precocious pupa at 1 ug/larva (reference value: 10).
The test system of test [7] is Bombyx mori. Description: Antijuvenile hormone activity against allatectomized third-instar larvae of Bombyx mori assessed as number of larvae transformed into fifth-instar larvae at 40 ug/larva (reference value: 0).
Test [8] concerns Bombyx mori. Description: Antijuvenile hormone activity against allatectomized third-instar larvae of Bombyx mori assessed as number of larvae transformed into larval pupa intermediate at 1 ug/larva (reference value: 0).
The test system of test [9] is Bombyx mori. As to the kind of experiment: Antijuvenile hormone activity against allatectomized third-instar larvae of Bombyx mori assessed as number of larvae transformed into precocious pupa at 40 ug/larva (reference value: 10).

As to `CCOC(=O)c1ccc(OCc2ccc3c(c2)OC(C)(C)C=C3)cc1`, the Activity came out at 0% with Bombyx mori [1], 65% with Bombyx mori [2] and 20% in the test on Bombyx mori [3].
Regarding `CCOC(=O)c1ccc(OCc2cc3c(cc2OC)C=CC(C)(C)O3)cc1`, the Activity in the test with Bombyx mori [1] turned out to be 75%; with Bombyx mori [4], 2; in the test with Bombyx mori [2] it was 100%; in the test with Bombyx mori [5] it was 0; in the test on Bombyx mori [6], 2; in the test with Bombyx mori [7], 10. Further, the results for the Activity with Bombyx mori [8], with Bombyx mori [9] and in the test with Bombyx mori [3] were 6, 0 and 95%, respectively.
`CCOC(=O)c1ccc(OCc2cc3c(cc2OCC)C=CC(C)(C)O3)cc1`: the Activity with Bombyx mori [1] came to 0%; in the test on Bombyx mori [2] it was 20%; with Bombyx mori [3] it was 5%.
For the compound `CCCOc1cc2c(cc1COc1ccc(C(=O)OCC)cc1)OC(C)(C)C=C2`, the Activity with Bombyx mori [1] was 0%; in the test with Bombyx mori [2] it was 16%; in the test with Bombyx mori [3], 0%.
As for `CCOC(=O)c1ccc(OCc2cc3c(cc2OCc2ccccc2)C=CC(C)(C)O3)cc1`, the Activity was 40% in the test with Bombyx mori [1], 100% with Bombyx mori [2] and 100% in the test on Bombyx mori [3].
`CCOC(=O)c1ccc(OCc2cc3c(cc2OC)CCC(C)(C)O3)cc1`: the Activity came to 46% with Bombyx mori [1]; 87% in the test on Bombyx mori [2]; 0 in the test with Bombyx mori [5]; 10 with Bombyx mori [7]; 0 with Bombyx mori [9]; 94% in the test with Bombyx mori [3].
As to `CCOC(=O)c1ccc(OCc2cc3c(cc2OC)OCCO3)cc1`, the Activity in the test with Bombyx mori [1] was determined as 10%; with Bombyx mori [2], 79%; in the test on Bombyx mori [3], 58%.
On to `CCOC(=O)c1ccc(OCc2cc3c(cc2OC)CCCC3)cc1`, for which the Activity with Bombyx mori [1] was 0%; in the test on Bombyx mori [2], 30%; with Bombyx mori [3], 10%.
For the compound `CCOC(=O)c1ccc(OCc2cc(OC)c(OC)cc2OC)cc1`, the Activity in the test with Bombyx mori [1], in the test with Bombyx mori [2] and in the test on Bombyx mori [3] was 0% in each case.
For `COC(C)(C)CCC[C@H](C)C/C=C/C(C)=C/C(=O)OC(C)C` [METHOPRENE], the Activity turned out to be 10 in the test on Bombyx mori [4], 0 with Bombyx mori [6] and 0 with Bombyx mori [8].

These data come from ChEMBL document CHEMBL3046779, “Synthesis and anti-juvenile hormone activity of ethyl 4-[(6-substituted 2,2-dimethyl-2H-chromen-7-yl)methoxy]benzoates” (2010).
